For 8 molecules, IC50 results are on record in patent US9765056B2, “Indole and pyrrole compounds, a process for their preparation and pharmaceutical compositions containing them” (LES LABORATOIRES SERVIER, priority 2013, dated 2017).

The target in experiment [1] is Bcl-2 protein (histag-Bcl-2, UniProtKB P10415) (Homo sapiens (Human), UniProt P10415). The experiment is described as follows: Inhibition of Bcl-2 by the fluorescence polarisation technique. The format is binding. The settings on record: fluorescence polarisation test; method A, or method B where underlined (underlining not visible); read-out: IC50 (nM) Bcl-2 FP. The source says:
Inhibition of Bcl-2 by the fluorescence polarisation technique
For orientation: Polarisation of emitted light reports the rotation of a fluorescent probe.

For experiment [2], the system named is RS4;11 leukaemia tumour line. The experiment is described as follows: In vitro cytotoxicity, Microculture Tetrazolium Assay (MTT). The format is cell-based. The settings on record: Homo sapiens; RS4;11 cells, 48 hours exposure. On the procedure: The cytotoxicity studies were carried out on the RS4;11 leukaemia tumour line.
The cells are distributed onto microplates and exposed to the test compounds for 48 hours. The cell viability is then quantified by a colorimetric assay, the Microculture Tetrazolium Assay (Cancer Res., 1987, 47, 939-942).

Chain of Bcl-2 protein (P10415 whole entry): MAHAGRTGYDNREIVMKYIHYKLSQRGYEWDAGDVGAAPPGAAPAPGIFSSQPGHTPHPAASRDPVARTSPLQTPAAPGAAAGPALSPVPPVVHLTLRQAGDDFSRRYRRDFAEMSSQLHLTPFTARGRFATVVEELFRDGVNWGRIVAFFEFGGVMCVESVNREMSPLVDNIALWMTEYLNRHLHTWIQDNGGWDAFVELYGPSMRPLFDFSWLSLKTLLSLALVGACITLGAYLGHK

`CN1CCN(C[C@@H]2Cc3ccccc3CN2C(=O)c2ccc(Br)cc2-n2cc(C(=O)N(c3ccc(O)cc3)c3ccc4[nH]ccc4c3)c3ccccc32)CC1` [Example 48, 1-(5-Bromo-2-{[(3S)-3-[(4-methylpiperazin-1-yl)methyl]-3,4-dihydroisoquinolin-2(1H)-yl]carbonyl}phenyl)-N-(4-hydroxyphenyl)-N-(1H-indol-5-yl)-1H-indole-3-carboxamide]: the results for the IC50 in experiment [1] and in experiment [2] were 10.5 nM and 93.9 nM, respectively.
In the same order, the values of `COc1ccc(N(C(=O)c2cn(-c3cc4c(cc3C(=O)N3Cc5ccccc5C[C@H]3CN3CCN(C)CC3)OCO4)c3ccccc23)c2ccc(O)cc2)cc1` [Example 49, N-(4-Hydroxyphenyl)-N-(4-methoxyphenyl)-1-(6-{[(3S)-3-[(4-methylpiperazin-1-yl)methyl]-3,4-dihydroisoquinolin-2(1H)-yl]carbonyl}-1,3-benzodioxol-5-yl)-1H-indole-3-carboxamide] are 13.1 nM and 136 nM.
The like results for `Cc1cc(C(=O)N(c2ccc(O)cc2)c2ccc(F)cc2)cn1-c1cc(Br)ccc1C(=O)N1Cc2ccccc2C[C@H]1CN1CCN(C)CC1` [Example 50, 1-(5-Bromo-2-{[(3S)-3-[(4-methylpiperazin-1-yl)methyl]-3,4-dihydroisoquinolin-2(1H)-yl]carbonyl}phenyl)-N-(4-fluorophenyl)-N-(4-hydroxyphenyl)-5-methyl-1H-pyrrole-3-carboxamide] were, in that order, 7.4 nM and 301 nM.
In the same order, the values of `CN1CCN(C[C@@H]2Cc3ccccc3CN2C(=O)c2cc3c(cc2-n2cc(C(=O)N(c4ccc(O)cc4)c4ccc(OC(F)(F)F)cc4)c4ccccc42)OCO3)CC1` [Example 51, N-(4-Hydroxyphenyl)-1-(6-{[(3S)-3-[(4-methylpiperazin-1-yl)methyl]-3,4-dihydroisoquinolin-2(1H)-yl]carbonyl}-1,3-benzodioxol-5-yl)-N-[4-(trifluoro-methoxy)phenyl]-1H-indole-3-carboxamide] are 6.9 nM and 155 nM.
Take `Cc1ccc(N(C(=O)c2cn(-c3cc4c(cc3C(=O)N3Cc5ccccc5C[C@H]3CN3CCN(C)CC3)OCO4)c3ccccc23)c2ccc(O)cc2)cc1F` [Example 52, N-(3-Fluoro-4-methylphenyl)-N-(4-hydroxyphenyl)-1-(6-{[(3S)-3-[(4-methylpiperazin-1-yl)methyl]-3,4-dihydroisoquinolin-2(1H)-yl]carbonyl}-1,3-benzodioxol-5-yl)-1H-indole-3-carboxamide]: the IC50 (usually the midpoint of a concentration-inhibition curve) in experiment [1] turned out to be 5.4 nM; in experiment [2], 77.3 nM.
Take `Cc1ccc(N(C(=O)c2cc(C)n(-c3cc(Br)ccc3C(=O)N3Cc4ccccc4C[C@H]3CN3CCN(C)CC3)c2)c2ccc(O)cc2)cc1` [Example 53, 1-(5-Bromo-2-{[(3S)-3-[(4-methylpiperazin-1-yl)methyl]-3,4-dihydroisoquinolin-2(1H)-yl]carbonyl}phenyl)-N-(4-hydroxyphenyl)-5-methyl-N-(4-methylphenyl)-1H-pyrrole-3-carboxamide]: the IC50 in experiment [1] was determined as 9 nM; in experiment [2], 207 nM.
In the same order, the values of `CN1CCN(C[C@@H]2Cc3ccccc3CN2C(=O)c2ccc(Br)cc2-n2cc(C(=O)N(c3ccc(O)cc3)c3ccc(O)cc3)c3ccccc32)CC1` [Example 54, 1-(5-Bromo-2-{[(3S)-3-[(4-methylpiperazin-1-yl)methyl]-3,4-dihydroisoquinolin-2(1H)-yl]carbonyl}phenyl)-N,N-bis(4-hydroxyphenyl)-1H-indole-3-carboxamide] are 20 nM and 103 nM.
The like results for `Cc1ccc(N(C(=O)c2cn(-c3cc4c(cc3C(=O)N3Cc5ccccc5C[C@H]3CN3CCN(C)CC3)OCO4)c3ccccc23)c2ccc3[nH]ccc3c2)cc1` [Example 55, N-(1H-Indol-5-yl)-N-(4-methylphenyl)-1-(6-{[(3S)-3-[(4-methylpiperazin-1-yl)methyl]-3,4-dihydroisoquinolin-2(1H)-yl]carbonyl}-1,3-benzodioxol-5-yl)-1H-indole-3-carboxamide] were, in that order, 57.2 nM and 1020 nM.
